One assay relates to cholesterol esterase. As to the kind of experiment: Substrate specificity: relative activity of cholesterol esterase on cholesterol esters. The assay is classed as biochemical, Pseudomonas fluorescens. The conditions noted are these: activity on cholesterol linoleate defined as 100; 37° C, 30 minutes, pH 7.5. The protocol: The determination of the enzyme activity on cholesterol linoleate is carried out by the following method.
A mixture having the following composition is prepared and shaken at 37° C for 30 minutes. […]
During the above-described operation, the substrate cholesterol linoleate is hydrolyzed by the action of cholesterol esterase into cholesterol and linoleic acid, and subsequently the formed cholesterol is oxidized to cholestenone by the action of cholesterol oxidase. After 30 minutes of shaking, the mixture is immediately subjected to the determination of residual unreacted cholesterol linoleate by Zurkowsky's method [Clinical Chemistry 10, 451 (1964)]. Then, the amount of the reacted cholesterol linoleate is calculated. The enzyme activity is expressed by "unit." A "unit" of enzyme activity is defined as that amount of enzyme which will decompose 1 μmole of cholesterol linoleate in 1 minute under the above-described conditions. The enzyme activities on other cholesterol esters are variable depending upon the kind of substrates and are determined in the similar manner.
`CCCCCCCC/C=C\CCCCCCCC(=O)O[C@H]1CC[C@@]2(C)C(=CC[C@H]3[C@@H]4CC[C@H]([C@H](C)CCCC(C)C)[C@@]4(C)CC[C@@H]32)C1` [Cholesterol oleate] came in with a Relative activity of 93.

Turning to `CC(=O)O[C@H]1CC[C@@]2(C)C(=CC[C@H]3[C@@H]4CC[C@H]([C@H](C)CCCC(C)C)[C@@]4(C)CC[C@@H]32)C1` [Cholesterol acetate], the Relative activity was determined as 80.

Turning to `CCCCC/C=C\C/C=C\CCCCCCCC(=O)O[C@H]1CC[C@@]2(C)C(=CC[C@H]3[C@@H]4CC[C@H]([C@H](C)CCCC(C)C)[C@@]4(C)CC[C@@H]32)C1` [Cholesterol linoleate], the Relative activity came out at 100.

As to `CCCCCCCCCCCCCCCC(=O)O[C@H]1CC[C@@]2(C)C(=CC[C@H]3[C@@H]4CC[C@H]([C@H](C)CCCC(C)C)[C@@]4(C)CC[C@@H]32)C1` [Cholesterol palmitate], the Relative activity amounted to 26.

`CCCCCCCCCCCCCCCCCC(=O)O[C@H]1CC[C@@]2(C)C(=CC[C@H]3[C@@H]4CC[C@H]([C@H](C)CCCC(C)C)[C@@]4(C)CC[C@@H]32)C1` [Cholesterol stearate] displayed a Relative activity of 58.

The subject of a further assay is cholesterol esterase. As to the kind of experiment: Inhibitory effects of various substances on the enzyme activity. The assay is classed as biochemical, Pseudomonas fluorescens.
Details: not given
For `O=[N+]([O-])[O-].[Ag+]` [AgNO3], the “activity of the enzyme inhibited by heavy metal ions” value (“activity of the enzyme inhibited” below) is “inhibited”.

As for `[Cl][Hg][Cl]` [HgCl2], the “activity of the enzyme inhibited” value was “inhibited”.

Turning to `O=S(=O)([O-])[O-].[Cu+2]` [CuSO4], the “activity of the enzyme inhibited” value was “inhibited”.

Still in this assay, the particulars now being: 0.1 ml of 4 mM solution of the substance added, kept at 37° C for 15 minutes; substrate cholesterol linoleate, 37° C for 10 minutes; ratio of residual to initial cholesterol linoleate.
For the compound `O=C(O)CN(CCN(CC(=O)O)CC(=O)O)CC(=O)O` [Ethylenediaminetetraacetic acid], the “Inhibition ratio (%)” value was 0%.

Regarding `c1cnc2c(c1)ccc1cccnc12` [o-Phenanthroline], the “Inhibition ratio (%)” value stood at 0%.

The same assay, now with this note: cholesterol esterase, 4000 µM.
With `O=C(O)c1cc[c]([Hg][Cl])cc1` [p-Chloromercuri benzoic acid (p-CMB), p-Chloromercuri benzoic acid], the “Inhibition ratio (%)” value was determined as 0%.

Take `O=[N+]([O-])[O-].[Ag+]` [AgNO3]: the “Inhibition ratio (%)” value stood at 20%.

As to `c1ccc(-c2ccccn2)nc1` [2,2'-Dipyridyl], the “Inhibition ratio (%)” value was 0%.

With `[Ca+2].[Cl-].[Cl-]` [CaCl2], the “Inhibition ratio (%)” value was determined as 0%.

As to `[Ba+2].[Cl-].[Cl-]` [BaCl2], the “Inhibition ratio (%)” value amounted to 0%.

On to `[Cl][Hg][Cl]` [HgCl2], for which the “Inhibition ratio (%)” value is 100%.

In the case of `[Cl][Mn][Cl]` [MnCl2], the “Inhibition ratio (%)” value was determined as 0%.

In the case of `O=S(=O)([O-])[O-].[Fe+2]` [FeSO4], the “Inhibition ratio (%)” value is reported as 0%.

For the compound `[Cl-].[Cl-].[Zn+2]` [ZnCl2], the “Inhibition ratio (%)” value amounted to 0%.

As for `O=S(=O)([O-])[O-].[Cu+2]` [CuSO4], the “Inhibition ratio (%)” value was found to be 100%.

The test system of the next assay is Pseudomonas fluorescens KY 3955 (FERM-P No. 2611) ATCC 31156. Kind of assay: Cholesterol esterase activity of culture filtrates with fatty acids or fatty acid esters added to the fermentation medium. The assay is classed as cell-based. The conditions noted are these: additive at 5 g/l in soybean meal fermentation medium, 30° C for 24 hours; None = 20.
For `CCCCCCCC/C=C\CCCCCCCC(=O)O` [oleic acid], the “Activity (cholesterol esterase activity of culture filtrate)” value was 170 unit/l.

Take `CCCCC/C=C\C/C=C\CCCCCCCC(=O)O` [linoleic acid]: the “Activity (cholesterol esterase activity of culture filtrate)” value was determined as 310 unit/l.

Consider `CCCCCCCC/C=C\CCCCCCCC(=O)OCC(COC(=O)CCCCCCC/C=C\CCCCCCCC)OC(=O)CCCCCCC/C=C\CCCCCCCC` [triolein], for which the “Activity (cholesterol esterase activity of culture filtrate)” value was 200 unit/l.

Take `CCCCCCCCCCCCCCCCCC(=O)O` [stearic acid]: the “Activity (cholesterol esterase activity of culture filtrate)” value worked out at 230 unit/l.

On to `CCCCC/C=C\C/C=C\CCCCCCCC(=O)OCC(COC(=O)CCCCCCC/C=C\C/C=C\CCCCC)OC(=O)CCCCCCC/C=C\C/C=C\CCCCC` [trilinolein], for which the “Activity (cholesterol esterase activity of culture filtrate)” value worked out at 250 unit/l.

These data come from patent US4011138A, “Process for the preparation of cholesterol esterase” (Kyowa Hakko Kogyo Co., Ltd., priority 1974, dated 1977).
